According to US20220008414A1, “PHARMACEUTICAL COMPOSITION COMPRISING HISTONE DEACETYLASE 6 INHIBITORS” (Chong Kun Dang Pharmaceutical Corp., priority 2018, published 2022):

Tests used:
other HDAC isotypes = assay: HDAC isotype enzyme assay (Reaction biology Corp.), remaining isotypes; assay type: biochemical; conditions: isotypes other than HDAC6 and HDAC8 (ND in table 3)
CMT1A mice (C22) [1] = assay: Grip strength test; assay type: in vivo; conditions: 10, 25 and 100 mg/kg twice a day orally for two weeks, 2.5-week-old C22 mice, vs control group (DW C22)
Method: (§1) Particularly, the compound 84 was repeatedly administered into the 2.5-week-old CMT1A mice (C22) at 10, 25 and 100 mg/kg twice a day for two weeks. Behavioral evaluation and electrophysiological analysis were performed on the last day, immediately after which the animals were sacrificed to carry out histopathological analysis and evaluation.
(§2) Rotarod, balance beam and grip strength tests were conducted once a day for two days. Thereafter, the animals were distributed by the Z-array method based on the results of rotarod, grip strength, and body weight. C22 mice were divided into four groups consisting of DW treated group and three compound 84 treated groups (10, 25, 100 mg/kg) with 10 mice per group. The test articles were repeatedly administered twice a day orally, and the behavioral test was performed 30 min after administration of the test articles.
In an actual clinical test, a degree of muscle atrophy is evaluated with an ankle dorsiflexion examination and a grip test. GST (GRIP […] TEST, BIO-GS3, BIOSEB) is mainly used in an animal experiment. For the GST, strength of four feet was evaluated with grid. All the experiments were performed by one person. […] Out of the values consecutively measured five times, the maximum value was calibrated with a weight, and then used as evaluation results. […]

CMT1A mice (C22) [2] = assay: Rotarod test; assay type: in vivo; conditions: 10, 25 and 100 mg/kg twice a day orally for two weeks, 2.5-week-old C22 mice, vs control group (DW C22)
Method: as §1, §2
The Rotarod test (ROTA ROD, LE8205, Panlab) was performed to evaluate a motor coordination function/motor function. For three days before the test, all the test animals were placed on a road at 8 rpm and subjected to adaptive training five times a day. The animals, whose time of falling from the rod reached 150-180 seconds, were used in the test (including about 80% of all the animals). In both group separation and the present experiment, time at which animals fell from the rod was measured at a fixed speed of 8 rpm for three minutes. […]

HDAC-6 [3] = target: T1, HDAC-6 (Homo sapiens, UniProt Q9UBN7); assay: HDAC6 enzyme activity inhibition (HDAC Fluorimetric Drug Discovery Kit); assay type: biochemical; design: purchased Calbiochem Inc. 382180; conditions: HDAC6 over HDAC1
T1 sequence (Q9UBN7 1-1215): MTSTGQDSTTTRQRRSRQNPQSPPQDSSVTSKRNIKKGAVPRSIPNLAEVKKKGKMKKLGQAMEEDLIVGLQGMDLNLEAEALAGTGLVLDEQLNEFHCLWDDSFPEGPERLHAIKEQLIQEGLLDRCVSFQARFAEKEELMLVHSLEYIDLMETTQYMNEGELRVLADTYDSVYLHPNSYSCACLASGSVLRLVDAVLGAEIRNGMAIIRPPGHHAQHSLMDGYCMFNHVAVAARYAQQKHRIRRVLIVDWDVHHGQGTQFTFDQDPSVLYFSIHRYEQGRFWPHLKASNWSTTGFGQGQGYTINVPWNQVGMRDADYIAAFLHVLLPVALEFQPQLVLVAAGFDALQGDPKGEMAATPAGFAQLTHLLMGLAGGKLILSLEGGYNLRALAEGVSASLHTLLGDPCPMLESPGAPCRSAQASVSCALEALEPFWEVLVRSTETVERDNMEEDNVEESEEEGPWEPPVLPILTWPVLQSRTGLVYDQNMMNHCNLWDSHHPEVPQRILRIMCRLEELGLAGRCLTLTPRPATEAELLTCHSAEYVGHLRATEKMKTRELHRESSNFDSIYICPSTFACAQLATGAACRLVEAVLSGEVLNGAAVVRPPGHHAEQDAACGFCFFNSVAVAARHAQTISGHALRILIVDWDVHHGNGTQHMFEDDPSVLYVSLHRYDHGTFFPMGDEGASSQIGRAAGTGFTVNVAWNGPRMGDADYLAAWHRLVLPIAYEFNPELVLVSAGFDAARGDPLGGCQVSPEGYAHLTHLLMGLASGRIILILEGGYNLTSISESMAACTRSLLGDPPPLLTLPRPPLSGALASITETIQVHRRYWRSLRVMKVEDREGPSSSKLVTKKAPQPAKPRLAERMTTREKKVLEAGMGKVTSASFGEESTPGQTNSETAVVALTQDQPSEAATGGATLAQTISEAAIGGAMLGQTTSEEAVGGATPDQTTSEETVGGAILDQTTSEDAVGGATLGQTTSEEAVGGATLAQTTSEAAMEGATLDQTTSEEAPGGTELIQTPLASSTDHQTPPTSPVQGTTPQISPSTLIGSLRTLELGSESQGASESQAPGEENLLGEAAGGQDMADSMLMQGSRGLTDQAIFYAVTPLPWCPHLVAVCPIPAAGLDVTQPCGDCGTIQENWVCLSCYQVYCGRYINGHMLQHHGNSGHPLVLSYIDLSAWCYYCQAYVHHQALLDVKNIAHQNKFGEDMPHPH
Method: A comparative experiment was conducted with an existing developed material as a control group in order to identify the selectivity of the compound represented by Formula I of the present invention to HDAC6 through an experiment on HDAC1 and HDAC6 enzyme activity inhibition.
The HDAC enzyme activity was measured with HDAC Fluorimetric Drug Discovery Kit (BML-[1424] AK511, 516) of Enzo Life Science, Inc. For the test on the HDAC1 enzyme activity, human recombinant HDAC1 (BML-SE456) was used as an enzyme source and Fluor de Lys®-“SIRT1 (BNL-KI177)” was used as a substrate. A 5-fold dilution of the compound was divided into a 96-well plate, after which 0.3 μg of the enzyme and 10 μM of the substrate were inserted into each well and subjected to reaction at 30° C. for 60 minutes, such that Fluor de Lys® Developer II (BMLKI176) was inserted thereinto and subjected to reaction for 30 minutes and finished. After that, a fluorescence value (Ex 360, Em 460) was measured with a multi-plate reader (Flexstation 3, Molecular Device). An experiment on HDAC6 enzyme was conducted in accordance with the same protocol as an HDAC1 enzyme activity test method by using human recombinant HDAC6 (382180) of Calbiochem Inc. Each IC50 value was calculated with GraphPad Prism 4.0 program, and final result values were described in the following table 2.

CMT1A mice (C22) [4] = assay: Nerve conduction study (NCS); assay type: in vivo; conditions: 10, 25 and 100 mg/kg twice a day for two weeks, 2.5-week-old C22 mice, vs control group (DW C22)
Method: as §1
The evaluation of the nerve conduction study (NSC) was as follows. A supramaximal stimulus was applied to proximal peripheral nerves, after which the compound muscle action potentials (CMAP) produced from distal muscles controlled by the nerves were recorded to measure a latent period, amplitude, nerve conduction velocity (NCV), duration, shape, area and the like, which were then compared with normal values and thus evaluated. For the nerve conduction study (NSC), an electrical stimulus was given to the sciatic nerves of the mice anesthetized with isoflurane, after which the electrical stimulus given to sural nerves was measured with VikingQuest (Natus Medical Inc.).

HDAC-6 [5] = target: T1, HDAC-6; assay: HDAC isotype enzyme assay (Reaction biology Corp.); assay type: biochemical; design: Reaction biology Corp. (contract laboratory); conditions: substrate RHK-K(Ac)-AMC
Source text: The experiment was requested at Reaction biology Corp. (Malvern, Pa., USA) and performed according to a test method established within the organization.

CMT1A mice (C22) [6] = assay: Histopathological analysis of sciatic nerves; assay type: in vivo
Method: as §1
A histopathological analysis was performed as follows. In 0.5 hours after the last administration of the compound 84, the mice were euthanized through cervical dis-location, after which their sciatic nerves were collected therefrom. For a histopathological examination, the collected sciatic nerves were fixed into 2.5% glu-taraldehyde solution. The fixed tissues were prepared into a plastic-embedded block through a tissue treatment process, then micro-sectioned in the semithin thickness of 500 nm to prepare sciatic nerve tissue fragments, and then stained with toluidine blue.
The stained nerve tissues were photographed at 400× magnification with an optical microscope. In a photographed entire area, the inner axon diameters of total myelinated fibers and total unmyelinated fibers were measured with an image J program. The results thereof were analyzed by using the numbers of total myelinated fibers and total unmyelinated fibers as well as a size distribution chart on the diameters of respective nerve fibers.

HDAC-8 = target: T2, HDAC-8 (Homo sapiens, UniProt Q9BY41); assay: HDAC isotype enzyme assay (Reaction biology Corp.); assay type: biochemical; conditions: substrate RHK-K(Ac)-AMC
T2 construct: Reaction biology Corp. (contract laboratory)
T2 sequence (Q9BY41 1-377): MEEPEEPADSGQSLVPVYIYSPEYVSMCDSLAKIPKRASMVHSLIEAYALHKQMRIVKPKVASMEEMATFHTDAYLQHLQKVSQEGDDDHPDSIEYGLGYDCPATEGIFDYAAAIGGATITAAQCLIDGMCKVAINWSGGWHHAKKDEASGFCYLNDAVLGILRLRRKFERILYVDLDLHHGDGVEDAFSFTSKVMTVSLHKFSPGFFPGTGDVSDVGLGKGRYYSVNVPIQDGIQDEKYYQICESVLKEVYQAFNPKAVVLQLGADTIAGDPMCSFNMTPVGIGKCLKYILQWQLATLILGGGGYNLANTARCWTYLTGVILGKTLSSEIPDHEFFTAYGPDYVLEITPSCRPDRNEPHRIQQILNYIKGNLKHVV

[7] = system: hippocampal neurons from a Sprague-Dawley (SD) rat fetus; assay: Effect on axonal transport velocity of mitochondria (in vitro); assay type: cell-based; conditions: amyloid-beta treated neurons, vehicle set at 100%, amyloid-beta group at 0%
Method: To that end, on the 17th to 18th days (E17-18) of insemination, the hippocampal neurons from a Sprague-Dawley (SD) rat fetus were cultured for seven days in a culture container for imaging, which had been coated with extracellular matrix, and were treated with amyloid-beta protein fragments at a concentration of […]. In 24 hours later, such neurons were treated with the compound on the 8th day of in vitro culture. In three hours later, they were treated with MitoTracker Red CMXRos (Life Tech-nologies, NY, USA) for last five minutes to stain mitochondria. An image on the axonal transport of stained neuron mitochondria was taken with a confocal microscope (Leica SP8; Leica microsystems, UK) at an interval of one second for one minute to measure a transport velocity of each mitochondria per second with an IMARIS analysis program (BITPLANE, Zurich, Switzerland), and to set a section, in which the group treated with amyloid-beta had shown a significant decrease in the transport velocity of mitochondria compared to a vehicle. After that, the results of normalization with the vehicle set at 100% and with the group treated with amyloid-beta set at 0% were described in the following table 1.

| Compound | Inhibition of other HDAC isotypes (other HDAC isotypes) | Grip strength (CMT1A mice (C22) [1]) | Time of latency to fall (CMT1A mice (C22) [2]) | HDAC6 selectivity (fold) (HDAC-6 [3]) | Compound muscle action potentials (CMAP) (CMT1A mice (C22) [4]) | Motor nerve conduction velocity (MNCV) (CMT1A mice (C22) [4]) | IC50 (HDAC-6 [5]) [nM] | Size of diameters of myelinated nerves (CMT1A mice (C22) [6]; sciatic nerve, vs control group (C22-Veh)) | Ratio of myelinated nerves and unmyelinated nerves (CMT1A mice (C22) [6]; sciatic nerve, vs control group of mice) | Morphological changes (loss of myelinated nerve fibers, axonal atrophy and schwann cell hyperplasia) (CMT1A mice (C22) [6]; toluidine blue, 10, 25 or 100 mg/kg for two weeks, vs control group of mice) | IC50 (HDAC-8) [nM] | Velocity distribution (%) ([7]; 0.5 uM) | Velocity distribution (%) ([7]; 15 uM) | Velocity distribution (%) ([7]; 1 uM) | Velocity distribution (%) ([7]; 3 uM) |
| --- | --- | --- | --- | --- | --- | --- | --- | --- | --- | --- | --- | --- | --- | --- | --- |
| C[C@@H]1CN(Cc2ccc(C(=O)NO)cc2)C[C@H](C)N1Cc1ccccc1 [Compound 84, 4-(((3R,5S)-4-benzyl-3,5-dimethylpiperazin-1-yl)methyl)-N-hydroxybenzamide] | not inhibited at all | increased in a dose-dependent manner | increased in a dose-dependent manner | 517 | increased in a dose-dependent way | increased in a dose-dependent way | 72.2 | increase | significant increase | significant improvement | 5170 | * (0%~50%) | *** (>100%) | – | – |
| C[C@@H]1CN(Cc2ccc(C(=O)NO)cc2)C[C@H](C)N1Cc1cccc(CN2CCCCC2)c1 [Compound 382, 4-(((3R,5S)-3,5-dimethyl-4-(3-(piperidin-1-ylmethyl)benzyl)piperazin-1-yl)methyl)-N-hydroxybenzamide] | – | – | – | >120 | – | – | – | – | – | – | – | – | – | – | – |
| CC(C)CCN1CCN(Cc2cccc(CN3[C@H](C)CN(Cc4ccc(C(=O)NO)cc4)C[C@@H]3C)c2)CC1 [Compound 454, N-hydroxy-4-(((3R,5S)-4-(3-((4-isopentylpiperazin-1-yl)methyl)benzyl)-3,5-dimethylpiperazin-1-yl)methyl)benzamide] | – | – | – | >237 | – | – | – | – | – | – | – | – | ** (50%~100%) | * (0%~50%) | * (0%~50%) |
